Data from US20250020668A1, “CANCER LESION TISSUE EVALUATION FOR OPTIMIZING EFFECT OF BORON NEUTRON CAPTURE THERAPY” (3-D Matrix, Ltd., priority 2018, published 2025).

Tested on: PABPc1
Assay: Immunoprecipitation with anti-BSH antibody from U251 cell crushing solution
Format: binding
Conditions: 50 μM, FIG. 2 and FIG. 3 combined
Protocol: To a cell crushing solution of a malignant brain tumor cell line U251, simple BSH (referred to BSH) (50 μM) or BSH-11R (50 μM) was added, and proteins which bind to BSH and BSH-11R were explored by immunoprecipitation with an anti-BSH antibody (10 μg).
To examine whether the binding of BSH-11R to the translation-related factors is a direct or indirect binding, a subline of malignant brain tumor cell line U251 that underwent knockdown of the translation-related factors with shRNA lentivirus was prepared. To the cell crushing solutions, BSH-11R (50 μM) was added, and translation-related factors that bind to BSH-11R were analyzed with an anti-BSH antibody (10 μg).

mercaptoundecahydrodecaborate [BSH]
binding to PABPc1: binds to BSH in an RNA-dependent manner
